# From US10254285B2, “Methods for detecting and treating cancer metastasis” (Cedars-Sinai Medical Center, priority 2013, dated 2019)
# Tests used:
# WPMY-1 cells = assay: Uptake of PKH26-labeled large oncosomes (LO) by recipient cells, FACS / fluorescent imaging; type: cell-based, human; conditions: WPMY-1 cells treated with PKH26-labeled LO for 1 h at 37° C. in presence of the compound
# Procedure: As shown in FIG. 23 LO internalization differs between cells. LO isolation was performed using a filtration approach where the larger vesicles are retained by the filter and the smaller ones flow through. To test LO uptake, LO were labeled with a lipophilic dye, PKH26 and then used to treat target cells for 1 h at 37° C. LO uptake levels have been measured as the acquisition of fluorescence by target cells either by FACS or confocal imaging.
# LO isolation was preformed using a filtration approach where the larger vesicles are retained by the filter and the smaller ones flow through. To test LO uptake LO were labeled with a lipophilic dye, PKH26 and then used to treat target cells for 1 h at 37° C. or 4° C. in presence or absence of the indicated compounds. LO uptake levels were measured as the acquisition of fluorescence by target cells either by FACS and fluorescent imaging. Dynamin2 silencing has been performed by transient transfection of WPMY-1 cells with an oligos against Dynamin2.
# c-Myc = assay: Luciferase reporter assay for c-Myc promoter activation in NAF; type: cell-based; conditions: NAF exposed to LO (20 μg/ml) in presence of Dyn (20 μM)
# Procedure: LO and Exo isolation was performed by differential high-speed centrifugation (10,000×g and 100,000×g) followed discontinuous density gradient centrifugation. Conditioned media from LNCaPMyrAkt1 was used as source for LO and Exo. Nuclear extract from WPMY-1 cells treated with LO for the indicated time was used to perform the transcription factor activation profiling array from Signosis. Luciferase reporter assay for c-Myc promoter activation has been performed in NAF transfected with c-Myc promoter or vector plasmid treated with either LO or Exo 20 μg/ml for 6 h. RT-qPCR for c-Myc target cells in NAF treated with either LO or Exo 20 μg/ml for 6 h or 24 h.
# LO and Exo isolation was performed by differential high-speed centrifugation (10,000×g and 100,000×g) followed by discontinuous density gradient centrifugation. Conditioned media from LNCaPMyrAkt1 was used as source for LO and Exo. […] After for 6 h-8 h tube formation rate is recorded by imaging, and quantified by counting the branching points in randomly chosen fields from each condition.
# HUVEC = assay: Tube formation assay in endothelial cells; type: cell-based; conditions: HUVECs treated with LO (20 μg/ml) in presence of Dyn
# Procedure: (§1) LO and Exo isolation was performed by differential high-speed centrifugation (10,000×g and 100,000×g) followed by discontinuous density gradient centrifugation. Conditioned media from LNCaPMyrAkt1 was used as source for LO and Exo. Tube formation assay in endothelial cells, HUVEC treated with LO or Exo 20 μg/ml directly or with conditioned media from NAF previously exposed to either LO or Exo. After 6 h-8 h tube formation rate is recorded by imaging, and quantified by counting the branching points in randomly chosen fields from each condition.
# as §1, with “Exo. Luciferase reporter assay for c-Myc promoter activation was performed in NAF transfected with c-Myc promoter or vector plasmid treated with either LO or Exo 20 μg/ml for 6 h in presence or absence of Dynasore 20 nM.” for “Exo.”, “directly in presence” for “directly”, “absence of Dynasore 20 nM.” for “with conditioned media from NAF previously exposed to either LO or Exo.”, “After for” for “After”
SMILES,"LO uptake (internalization, mean fluorescent intensity) (WPMY-1 cells)","LO uptake (internalization, mean fluorescent intensity) (WPMY-1 cells; listed as Dyn)",c-Myc activation induced by LO (luciferase reporter) (c-Myc),tube formation (HUVEC)
C=C1[C@@H](C)[C@H]2[C@H](Cc3ccccc3)NC(=O)[C@]23[C@H](OC(C)=O)/C=C/[C@@](C)(O)C(=O)[C@@H](C)C/C=C/[C@H]3[C@@H]1O [cytochalasin D],partially reduced,–,–,–
O=C(N/N=C/c1ccc(O)c(O)c1)c1cc2ccccc2cc1O [dynasore],significantly reduced,inhibited,reverted,significantly inhibited
